The structures appear in SMILES notation. Where only a bound is given, the exact number is not on record here.

The results in this text go back to patent publication US7507727B2, “Substituted quinobenzoxazine analogs and methods of using thereof” (Cylene Pharmaceuticals, Inc., priority 2003, dated 2009).

In the first experiment the target is c-Myc template DNA (c-myc quadruplex). Briefly: Quadruplex binding / stop assay (Taq polymerase arrest, capillary electrophoresis). The following applies: read-out: S DATA; Table 1D, stop assay data.
From the text: A high throughput polymerase arrest assay has been developed. The assay comprises contacting a template nucleic acid, often DNA, with a primer, which also is often DNA; contacting the primer/template complex with a compound described herein (also referred to as a “test compound”); contacting the primer/template complex with a polymerase; and separating reaction products. The assay often includes the step of denaturing the primer/template complex mixture and then renaturing the complex, which often is carried out before a test molecule is added to the system. Multiple assays often are carried out using varying concentrations of a test compound, such that an IC50 value can be obtained, for example. The reaction products often include extended primers of different lengths.
Thus, the reaction mixture often includes at least two reaction products when a test compound interacts with a quadruplex structure in the template, one having a completely extended primer and one having an incompletely extended primer, and these two reaction products are separated. The products may be separated using any convenient separation method, such as mass spectrometry and in one embodiment, capillary electrophoresis.
In an embodiment, a primer oligonucleotide covalently linked to a fluorescent label is contacted with template DNA. The resulting complex is contacted with a test molecule and then contacted with a polymerase capable of extending the primer. The reaction products then are separated and detected by capillary electrophoresis. A longer primer sequence was used for practicing this embodiment as compared to embodiments where the primer includes no covalently-linked fluorophore or where capillary electrophoresis is not utilized for separation. Deoxynucleotides are added at any stage of the assay before the separation, often when the primer is contacted with the template DNA. The template DNA/primer complex often is denatured (e.g., by increasing the temperature of the system) and then renatured (e.g., by cooling the system) before a test compound is added).
The mixture was denatured at 95° C. for 5 minutes and, after cooling down to room temperature, was incubated at 37° C. for 15 minutes.
After cooling down to room temperature, 1 mM KCl and the test compound (various concentrations) were added and the mixture incubated for 15 minutes at room temperature. The primer extension was performed by adding 10 mM KCl and Taq DNA Polymerase (2.5 U/reaction, Promega) and incubating at 70° C. for 30 minutes. The reaction was stopped by adding 1 μl of the reaction mixture to 10 μl Hi-Di Formamide mixed and 0.25 μl LIZ120 size standard. Hi-Di Formamide and LIZ120 size standard were purchased from Applied Biosystems.
The partially extended quadruplex arrest product was between 61 or 62 bases long and the full-length extended product was 99 bases long. The products were separated and analyzed using capillary electrophoresis. Capillary electrophoresis was performed using an ABI PRISM 3100-Avant Genetic Analyzer.
Stop Assays. […] A fluorescently labeled primer DNA is then annealed to the 3′ end of the template DNA. A DNA polymerase such as Taq polymerase is then introduced to synthesize a complementary strand of DNA by extending from the fluorescently labeled primer. When the progress of the Taq polymerase is unhindered, it synthesizes a full-length copy of the template.
These products are visualized by capillary electrophoresis.
As for `CC(=O)N1CCN(c2c(F)cc3c(=O)c(C(=O)NCCC4CCCN4C)cn4c3c2Oc2cc(Cl)ccc2-4)CC1` (stereo not shown) [compound 1807], the IC50 is above 15 µM.
`CC(C)(C)OC(=O)NC1CCN(c2c(F)cc3c(=O)c(C(=O)NCCN4CCOCC4)cn4c3c2Oc2ccccc2-4)C1` (stereo not shown) [compound 1584]: the IC50 is above 15 µM.
For `NC1CCN(C(=O)c2cn3c4c(c(NCCN5CCCC5)c(F)cc4c2=O)Oc2ccccc2-3)C1` (stereo not shown) [compound 1629], the IC50 is above 15 µM.
Regarding `CC1CCCN(CCCNc2c(F)cc3c(=O)c(C(=O)NCCC4CCCN4C)cn4c3c2Oc2cc3ccccc3cc2-4)C1` (stereo not shown) [compound 1685], the IC50 came out at 1.75 µM.
Consider `CC(=O)N1CCN(c2c(F)cc3c(=O)c(C(=O)NCCN4CCCC4)cn4c3c2Oc2cc(Cl)ccc2-4)CC1` [compound 1812], for which the IC50 came out at 3.2 µM.
For `O=C(NCCN1CCCC1)c1cn2c3c(c(N4CCC(c5cnccn5)C4)ccc3c1=O)Oc1cc3ccccc3cc1-2` (stereo not shown) [compound 1723], the IC50 came out at 1.5 µM.
On to `COc1ccc(CCNc2c(F)cc3c(=O)c(C(=O)NCCN4CCCC4)cn4c3c2Oc2cc3ccccc3cc2-4)cc1OC` [compound 1756], for which the IC50 was found to be 1.81 µM.
On to `CN(C)CCCCNC(=O)c1cn2c3c(c(N4CCC(NC(=O)OC(C)(C)C)C4)ccc3c1=O)Oc1cc3ccccc3cc1-2` (stereo not shown) [compound 1539], for which the IC50 is 0.75 µM.
Regarding `CCN(CC)CCCC(C)NC(=O)c1cn2c3c(c(N4CCC(c5cnccn5)C4)c(F)cc3c1=O)Oc1ccccc1-2` (stereo not shown) [compound 1725], the IC50 was 3 µM.
Consider `CN1CCCC1CCNC(=O)c1cn2c3c(c(NC4CC(C)(C)NC(C)(C)C4)c(F)cc3c1=O)Oc1cc3ccccc3cc1-2` (stereo not shown) [compound 1478], for which the IC50 was 1 µM.
On to `CN1CCC[C@H]1CCNC(=O)c1cn2c3c(c(N4CCC(c5cnccn5)C4)c(F)cc3c1=O)Oc1ccccc1-2` (stereo partly shown) [compound 1762], for which the IC50 stood at 5.7 µM.
On to `COc1ccc2c(CCNc3c(F)cc4c(=O)c(C(=O)NCCC5CCCN5C)cn5c4c3Oc3cc4ccccc4cc3-5)c[nH]c2c1` (stereo not shown) [compound 1667], for which the IC50 turned out to be 1.75 µM.
For `CCN(CC)CCCCNC(=O)c1cn2c3c(c(N4CCC(N)C4)c(F)cc3c1=O)Oc1ccc(Cl)cc1-2` (stereo not shown) [compound 1803], the IC50 worked out at 3 µM.
For `CN1CCN(CCCNc2ccc3c(=O)c(C(=O)NCCC4CCCN4C)cn4c3c2Oc2cc3ccccc3cc2-4)CC1` (stereo not shown) [compound 1553], the IC50 was found to be 0.75 µM.
Same read-out and setting: under `CN1CCCC1CCNC(=O)c1cn2c3c(c(N4CCC(n5c(=O)[nH]c6ccccc65)CC4)c(F)cc3c1=O)Oc1cc3ccccc3cc1-2` (stereo not shown) [compound 1477] stands 1 µM.
On the same count and under the same terms, the same measure for `N=C(N)NCCCCNC(=O)c1cn2c3c(c(NCCN4CCOCC4)c(F)cc3c1=O)Oc1ccccc1-2` [compound 1634]: above 15 µM; for `CN1CCN(CCCNc2c(F)cc3c(=O)c(C(=O)N4CCC(N)C4)cn4c3c2Oc2ccccc2-4)CC1` (stereo not shown) [compound 1628]: above 15 µM.
In the case of `NC1CCN(c2c(F)cc3c(=O)c(C(=O)NCCc4ccc(O)c(O)c4)cn4c3c2Oc2cc3ccccc3cc2-4)C1` (stereo not shown) [compound 1706], the IC50 was above 15 µM.
As for `CN1CCCC1CCNC(=O)c1cn2c3c(c(SCCc4cnccn4)c(F)cc3c1=O)Oc1ccccc1-2` (stereo not shown) [compound 1779], the IC50 is above 15 µM.
The same measure, in the same setting: the same measure for `O=C(O)c1cn2c3c(c(NCC4CCCO4)c(F)cc3c1=O)Oc1cc3ccccc3cc1-2` (stereo not shown) [compound 1740]: 8.5 µM.
As to `O=C(NCCN1CCCC1)c1cn2c3c(c(N4CCN(c5ncccn5)CC4)c(F)cc3c1=O)Oc1cc(Cl)ccc1-2` [compound 1813], the IC50 was found to be 5.1 µM.
As for `O=C(NCCN1CCCC1)c1cn2c3c(c(NCCN4CCOCC4)ccc3c1=O)Oc1cc3ccccc3cc1-2` [compound 1546], the IC50 was above 15 µM.
Regarding `CN1CCCC1CCNC(=O)c1cn2c3c(c(NC(=O)C4CCCNC4)c(F)cc3c1=O)Oc1cc3ccccc3cc1-2` (stereo not shown) [compound 1480], the IC50 came out at 1.75 µM.
`CN1CCN(CCCNc2c(F)cc3c(=O)c(C(=O)NCCC4CCCN4C)cn4c3c2Oc2ccccc2-4)CC1` (stereo not shown) [compound 1576]: the IC50 is above 15 µM.

The same experiment, now with this note: read-out: Stop Data c-Myc μM; concentration at which 50% of the DNA was arrested (arrested:full-length 1:1).
For `CN(C)CCCCNc1c(F)cc2c(=O)c(C(=O)O)cn3c2c1Oc1cc2ccccc2cc1-3` [compound 8], the IC50 turned out to be 1.75 µM.
As for `CN1CCN(CCCNC(=O)c2cn3c4c(c(NCCC5CCCN5C)c(F)cc4c2=O)Oc2c-3ccc3ccccc23)CC1` (stereo not shown) [compound 549], the IC50 was determined as 0.375 µM.
In the case of `O=C(NCCN1CCOCC1)c1cn2c3c(c(NCCN4CCOCC4)c(F)cc3c1=O)Oc1cc3ccccc3cc1-2` [compound 54], the IC50 was determined as 2.5 µM.
With `NC1CCN(c2c(F)cc3c(=O)c(C(=O)NCc4ccccc4N4CCOCC4)cn4c3c2Oc2cc3ccccc3cc2-4)C1` (stereo not shown) [compound 248], the IC50 worked out at 1.75 µM.
For the compound `CN1CCCC1CCNC(=O)c1cn2c3c(c(NCCN4CCCC4)ccc3c1=O)Oc1cc3ccccc3cc1-2` (stereo not shown) [compound 446], the IC50 was found to be 0.75 µM.
`NC1CCN(c2ccc3c(=O)c(C(=O)NCCCN4CCOCC4)cn4c3c2Oc2cc3ccccc3cc2-4)C1` (stereo not shown) [compound 457]: the IC50 was determined as 0.75 µM.
In the case of `NC1CCN(c2c(F)cc3c(=O)c(C(=O)NCc4nc5ccccc5[nH]4)cn4c3c2Oc2cc3ccccc3cc2-4)C1` (stereo not shown) [compound 196], the IC50 was 1.75 µM.
On to `COc1cccc(CCNc2c(F)cc3c(=O)c(C(=O)NCCC4CCCN4C)cn4c3c2Oc2cc3ccccc3cc2-4)c1OC` (stereo not shown) [compound 100], for which the IC50 is 2.5 µM.
Still for that read-out and setting: the same measure for `CN1CCCC1CCNC(=O)c1cn2c3cc4oc5cc([N+](=O)[O-])ccc5[nH]c4cc3oc3c(NCCCN4CCOCC4)c(F)cc(c1=O)c32` (stereo not shown) [compound 408]: 0.75 µM; for `CN1CCCC1CCNc1c(F)cc2c(=O)c(C(=O)O)cn3c4cc5oc6cc(N)ccc6[nH]c5cc4oc1c23` (stereo not shown) [compound 20]: 0.75 µM; for `NCc1cn2c3c(c(N4CCC(N)C4)c(F)cc3c1=O)Oc1cc3ccccc3cc1-2` (stereo not shown) [compound 99]: 2.5 µM.
In the case of `Nc1c(F)c(F)c2c3c1c(=O)c(C(=O)O)cn3-c1cc3ccccc3cc1O2` [compound 13], the IC50 is 1.75 µM.
As to `CN1CCN(C(=O)c2cn3c4cc5c(=O)c6ccccc6c(=O)c5cc4oc4c(N5CCC(N)C5)c(F)cc(c2=O)c43)CC1` (stereo not shown) [compound 92], the IC50 turned out to be 2.5 µM.
For the compound `O=C(NCCN1CCCC1)c1cn2c3cc4c(cc3oc3c(NCCCN5CCOCC5)c(F)cc(c1=O)c32)c(=O)c1ccccc14` [compound 418], the IC50 stood at 0.75 µM.
As for `NC1CCN(c2c(F)cc3c(=O)c(C(=O)NN4CCCCC4)cn4c3c2Oc2cc3ccccc3cc2-4)C1` (stereo not shown) [compound 244], the IC50 was 1.75 µM.
`CN1CCCN(c2c(F)cc3c(=O)c(C(=O)N4CCOCC4)cn4c3c2Oc2cc3ccccc3cc2-4)CC1` [compound 41]: the IC50 is 2.5 µM.
On to `Nc1c(F)cc2c(=O)c(C(=O)O)cn3c2c1Oc1c-3ccc2ccccc12` [compound 16], for which the IC50 is 0.9 µM.
With `CN1CCN(CCCNc2c(F)cc3c(=O)c(C(=O)NCCN4CCCC4)cn4c3c2Oc2cc3c(cc2-4)oc2ccccc23)CC1` [compound 152], the IC50 came to 1.75 µM.
In the case of `O=C(NCCCn1ccnc1)c1cn2c3c(c(NCCCn4ccnc4)c(F)cc3c1=O)Oc1cc3ccccc3cc1-2` [compound 40], the IC50 stood at 2.5 µM.
On to `CN(C)/C=N/CCCCNC(=O)c1cn2c3c(c(N4CC[C@@H](NC(=O)OC(C)(C)C)C4)c(F)cc3c1=O)Oc1cc3ccccc3cc1-2` [compound 212], for which the IC50 was determined as 1.75 µM.
Turning to `CN1CCN(CCCNC(=O)c2cn3c4cc5c(=O)c6ccccc6c(=O)c5cc4oc4c(F)c(F)cc(c2=O)c43)CC1` [compound 344], the IC50 is 0.9 µM.
Regarding `CN(C)CCCCNC(=O)c1cn2c3c(c(NCCCN4CCOCC4)c(F)c(N)c3c1=O)Oc1cc3ccccc3cc1-2` [compound 220], the IC50 was 1.75 µM.
With `O=C(NCCN1CCCC1)c1cn2c3c(c(NCCN4CCCC4)c(F)cc3c1=O)Oc1c-2ccc2ccccc12` [compound 139], the IC50 worked out at 1.75 µM.
For `CN(C)CCCCNC(=O)c1cn2c3c(c(N4CCC(NC(=O)OC(C)(C)C)C4)c(F)cc3c1=O)Oc1cc3c(cc1-2)oc1ccccc13` (stereo not shown) [compound 155], the IC50 was 1.75 µM.
As for `CC1(C)CC(NC(=O)c2cn3c4c(c(N5CCC(N)C5)c(F)cc4c2=O)Oc2cc4ccccc4cc2-3)CC(C)(C)N1` (stereo not shown) [compound 444], the IC50 came out at 0.75 µM.
`CN(C)CCCCNC(=O)c1cn2c3c(c(NCCN4CCCC4)c(F)cc3c1=O)Oc1c-2ccc2ccccc12` [compound 473]: the IC50 was 0.62 µM.
With `C[C@H](O)CNc1c(F)cc2c(=O)c(C(=O)NCCC3CCCN3C)cn3c2c1Oc1cc2ccccc2cc1-3` (stereo partly shown) [compound 294], the IC50 is 1.75 µM.
Consider `CN1CCN(CCCNc2c(F)cc3c(=O)c(C(=O)NCCN4CCOCC4)cn4c3c2Oc2cc3c(cc2-4)oc2ccccc23)CC1` [compound 150], for which the IC50 amounted to 1.75 µM.
Regarding `CN(C)CCCCNc1ccc2c(=O)c(C(=O)NCCC3CCCN3C)cn3c2c1Oc1cc2ccccc2cc1-3` (stereo not shown) [compound 275], the IC50 was 1.75 µM.
Still for that read-out and setting: the same measure for `CCN(CC)CCCC(C)Nc1c(F)cc2c(=O)c(C(=O)NCCC3CCCN3C)cn3c2c1Oc1cc2ccccc2cc1-3` (stereo not shown) [compound 436]: 0.75 µM; for `O=C(NCCCN1CCOCC1)c1cn2c3cc4c(cc3oc3c(NCCN5CCOCC5)c(F)cc(c1=O)c32)c(=O)c1ccccc14` [compound 205]: 1.75 µM.
With `CN1CCCC1CCNC(=O)c1cn2c3c(c(NCCN4CCCC4)ccc3c1=O)Oc1cc3ccccc3cc1-2` (stereo not shown) [compound 266], the IC50 stood at 1.75 µM.
Still for that read-out and setting: under `CN1CCCC1CCNC(=O)c1cn2c3c(c(NCCN4CCOCC4)c(F)cc3c1=O)Oc1c-2ccc2ccccc12` (stereo not shown) [compound 131] stands 1.75 µM; under `O=C(NCCCN1CCOCC1)c1cn2c3c(c(NCCN4CCCC4)c(F)cc3c1=O)Oc1cc3ccccc3cc1-2` [compound 69], 2.5 µM; under `CN(C)CCCCNc1c(F)cc2c(=O)c(C(=O)NCCC3CCCN3C)cn3c4cc5c(=O)c6ccccc6c(=O)c5cc4oc1c23` (stereo not shown) [compound 354], 0.9 µM.
Regarding `CN1CCN(c2c(F)cc3c(=O)c(C(=O)NCCCN4CCOCC4)cn4c5cc6c(=O)c7ccccc7c(=O)c6cc5oc2c34)CC1` [compound 172], the IC50 came to 1.75 µM.
`O=C(NCCN1CCCC1)c1cn2c3c(c(NCCN4CCOCC4)c(F)cc3c1=O)Oc1cc3ccccc3cc1-2` [compound 58]: the IC50 amounted to 2.5 µM.
